Data as given in ChEMBL document CHEMBL1201862, “PubChem BioAssay data set” (2004).
Several values for one entry are separate records, joined by “and”; a condition that tells them apart may be missing. Identical values can stand only once. Activity calls are given as the source filed them.

Experiments:
[1] = molecular target: T1, E3 ubiquitin-protein ligase XIAP (Homo sapiens, UniProt P98170); test: SAR analysis of Antagonists of XIAP-Bir3 domain of IAP-family anti-apoptotic proteins. [Related pubchem assays (depositor defined):AID1018, AID1449, AID1513, AID1514, AID1638]
[2] = molecular target: T1, E3 ubiquitin-protein ligase XIAP; test: SAR analysis of Antagonists of IAP-family anti-apoptotic proteins. [Related pubchem assays (depositor defined):AID1018, AID1449, AID1513, AID1514, AID1638]
[3] = molecular target: Intestinal-type alkaline phosphatase (Mus musculus, UniProt P24822); test: PubChem AID 488785; format: functional
[4] = molecular target: T2, Alkaline phosphatase, tissue-nonspecific isozyme (Homo sapiens, UniProt P05186); test: TNAP enzyme inhibition by screening hits, dose response, selectivity assay for mouse IAP inhibitor project, biochemical, human TNAP, uHTS hits (AID 488906); format: functional
T2 sequence (P05186 whole entry): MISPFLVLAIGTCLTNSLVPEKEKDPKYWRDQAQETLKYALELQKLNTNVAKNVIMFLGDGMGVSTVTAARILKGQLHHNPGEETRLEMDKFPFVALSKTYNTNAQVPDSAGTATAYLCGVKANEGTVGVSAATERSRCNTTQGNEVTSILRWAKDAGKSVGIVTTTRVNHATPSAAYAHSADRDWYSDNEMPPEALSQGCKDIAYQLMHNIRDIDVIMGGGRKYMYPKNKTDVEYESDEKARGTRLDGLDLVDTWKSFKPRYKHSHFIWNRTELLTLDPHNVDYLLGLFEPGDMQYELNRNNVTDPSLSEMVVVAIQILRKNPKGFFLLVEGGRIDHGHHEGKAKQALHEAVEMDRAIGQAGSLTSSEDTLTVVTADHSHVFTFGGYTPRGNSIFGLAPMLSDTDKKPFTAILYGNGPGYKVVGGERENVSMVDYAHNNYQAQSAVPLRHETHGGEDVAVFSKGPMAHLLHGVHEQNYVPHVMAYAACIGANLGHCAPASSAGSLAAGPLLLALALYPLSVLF

[5] = molecular target: Intestinal-type alkaline phosphatase (Homo sapiens, UniProt P09923); test: inhibition of human intestinal alkaline phosphatase – biochemical, dose response (AID 488876); format: functional
[6] = molecular target: Sphingosine 1-phosphate receptor 2 (Homo sapiens, UniProt O95136); test: Dose Response Cell Based Assay for Agonists of the S1P2 Receptor. [Related pubchem assays: 729, 736, 843 ]; format: functional
[7] = fluconazole-exposed Candida albicans growth modulators – fluorescence, retest, confirmation (AID 2467); format: functional, cell-based
[8] = molecular target: Sphingosine 1-phosphate receptor 4 (Homo sapiens, UniProt O95977); test: Fluorescence dose response cell-based high throughput screening assay for agonists of the Sphingosine 1-Phosphate Receptor 4 (S1P4). [Related pubchem assays: 1509 (Primary screen.), 1523 (Confirmation screen in triplicates.)]; format: functional
[9] = molecular target: Sphingosine 1-phosphate receptor 1 (Homo sapiens, UniProt P21453); test: Fluorescence-based counterscreen assay for S1P4 agonists: Cell-based dose response high throughput screening assay to identify agonists of the Sphingosine 1-Phosphate Receptor 1 (S1P1). [Related pubchem assays (depositor defined):AID1509, AID1523, AID1801, AID463107, AID463118, AID463119, AID463122, AID463123, AID463129, AID463225, AID504400, AID504460]; format: functional
[10] = NIH-3T3 fibroblast cytotoxicity, dose response, cytotoxicity control, cell-based, fluorescence, Alamar Blue, secondary assay (AID 2327); format: functional;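 also: NIH-3T3 mouse fibroblasts cultured with fluconazole at 8 µg/mL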
[11] = molecular target: Tumor necrosis factor (Homo sapiens, UniProt P01375); test: analog potency on TNFa NF-kB signaling – cell-based, revised, SAR follow-up (AID 2337); format: functional
[12] = test system: HEK293; test: cells; settings: Homo sapiens;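 also: cells exposed to compound for 14 hours overnight before viability readout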
[13] = molecular target: Nucleotide-binding oligomerization domain-containing protein 1 (Homo sapiens, UniProt Q9Y239); test: blockers of NOD1 pathway activity – revised, SAR follow-up (AID 2333); format: functional
[14] = molecular target: Type-1 angiotensin II receptor (Homo sapiens, UniProt P30556); test: agonist activity at AGTR1 – cell-based, uHTS hits, selectivity assay for APJ receptor agonist project, dose response (AID 488865); format: functional;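 also: beta-arrestin recruitment to AT1 measured by enzyme fragment complementation luminescence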
[15] = molecular target: 5-hydroxytryptamine receptor 5A (Homo sapiens, UniProt P47898); test: Counterscreen for agonists of OPRM1-OPRD1 heterodimerization: luminescence-based cell-based high throughput dose response assay to identify agonists of 5-hydroxytryptamine (serotonin) 5A receptor (HTR5A). [Related pubchem assays (depositor defined):AID504326, AID504355, AID504692, AID504904, AID504905]; format: functional
[16] = molecular target: Bcl-2-related protein A1 (Mus musculus, UniProt Q07440); format: functional;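 also: confirmatory dose–response counterscreen on Bfl-1, used to check hits from a UBC13 polyubiquitin inhibitor campaign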
[17] = molecular target: T3, Short transient receptor potential channel 4 (Mus musculus, UniProt Q9QUQ5); test: calcium entry via TRPC4 opening agents – cell-based, HEK293 TRPC4/mu-opioid, Fluo-4 calcium, dose response (AID 434937); format: functional
T3 sequence (Q9QUQ5 whole entry): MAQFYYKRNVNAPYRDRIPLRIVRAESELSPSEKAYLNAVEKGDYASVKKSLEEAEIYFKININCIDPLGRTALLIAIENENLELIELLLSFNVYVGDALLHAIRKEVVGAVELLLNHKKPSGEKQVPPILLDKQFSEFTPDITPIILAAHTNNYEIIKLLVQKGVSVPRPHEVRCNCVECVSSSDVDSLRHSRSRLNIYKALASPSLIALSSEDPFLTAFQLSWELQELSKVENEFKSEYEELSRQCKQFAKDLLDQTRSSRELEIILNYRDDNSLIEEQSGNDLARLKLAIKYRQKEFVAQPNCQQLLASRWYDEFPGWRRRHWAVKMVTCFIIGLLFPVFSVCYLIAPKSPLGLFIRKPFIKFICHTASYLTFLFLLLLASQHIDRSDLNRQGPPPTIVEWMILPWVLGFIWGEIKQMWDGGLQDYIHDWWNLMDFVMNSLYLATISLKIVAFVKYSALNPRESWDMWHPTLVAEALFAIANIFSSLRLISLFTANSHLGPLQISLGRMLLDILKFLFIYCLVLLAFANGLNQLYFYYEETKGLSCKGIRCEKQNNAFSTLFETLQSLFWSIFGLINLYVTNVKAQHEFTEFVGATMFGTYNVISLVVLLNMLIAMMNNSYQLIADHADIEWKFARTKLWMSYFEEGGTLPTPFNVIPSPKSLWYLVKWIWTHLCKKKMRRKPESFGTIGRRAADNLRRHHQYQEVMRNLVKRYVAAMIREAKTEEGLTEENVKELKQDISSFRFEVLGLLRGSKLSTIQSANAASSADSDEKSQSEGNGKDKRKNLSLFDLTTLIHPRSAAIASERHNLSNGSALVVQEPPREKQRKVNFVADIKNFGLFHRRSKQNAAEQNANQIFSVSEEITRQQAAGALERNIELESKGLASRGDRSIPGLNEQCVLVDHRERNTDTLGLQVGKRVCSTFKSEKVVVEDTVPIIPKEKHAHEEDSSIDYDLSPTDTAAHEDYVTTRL

[18] = molecular target: Delta-type opioid receptor (Homo sapiens, UniProt P41143); test: Counterscreen for agonists of heterodimerization of the mu 1 (OPRM1) and delta 1 (OPRD1) opioid receptors: Luminescence-based cell-based high throughput dose response assay to identify agonists of OPRD1 homodimerization. [Related pubchem assays (depositor defined):AID504326, AID504355, AID504692, AID504904, AID504905]; format: functional
[19] = molecular target: T4, Ubiquitin-conjugating enzyme E2 N (Homo sapiens, UniProt P61088); format: functional
T4 sequence (P61088 whole entry): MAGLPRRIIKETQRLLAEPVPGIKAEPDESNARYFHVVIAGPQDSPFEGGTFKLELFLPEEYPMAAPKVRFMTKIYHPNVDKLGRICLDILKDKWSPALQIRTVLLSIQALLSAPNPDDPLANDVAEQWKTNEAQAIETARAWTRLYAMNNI

[20] = test system: INS1; test: INS-1E survival protection against cytokine death – cell-based, luminescence, retest, dose response (AID 449756); format: functional; settings: Rattus norvegicus;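 also: cell death triggered by IL-1 beta plus TNF-alpha plus IFN-gamma mixture; protective hits raise ATP signal compared with cytokine alone wells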
[21] = molecular target: Nonstructural protein 1 (Influenza A virus, UniProt Q194T2); format: functional, Influenza A virus (A/California/07/2009(H1N1))
[22] = molecular target: T4, Ubiquitin-conjugating enzyme E2 N; format: functional; remark: listed apart in the source
[23] = molecular target: Mu-type opioid receptor (Homo sapiens, UniProt P35372); test: Counterscreen for agonists of heterodimerization of the mu 1 (OPRM1) and delta 1 (OPRD1) opioid receptors: Luminescence-based cell-based high throughput dose response assay to identify agonists of OPRM1 homodimerization.; format: functional;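 also: U2OS cells expressing OPRM1 and beta-arrestin as split beta-galactosidase partners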
[24] = molecular target: Peroxisome proliferator-activated receptor gamma/Nuclear receptor coactivator 2 (Homo sapiens, UniProt P37231); test: (§1) TR-FRET dose response biochemical High Throughput Screening assay for agonists of the steroid receptor coactivator 2 (SRC-2) recruitment by the peroxisome proliferator-activated receptor gamma (PPAR gamma): non-selective agonists. [Related pubchem assays: 1297, 1032 ]; format: functional
[25] = molecular target: Peroxisome proliferator-activated receptor gamma/Nuclear receptor coactivator 3 (Homo sapiens, UniProt P37231); test: as §1, with “3 (SRC-3)” for “2 (SRC-2)”, “1301 (Confirmation screen.), 1048 (Primary screen.)]” for “1297, 1032 ]”; format: functional
[26] = molecular target: Cytochrome P450 3A4 (Homo sapiens, UniProt P08684);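 also: CYP3A4 tested as one member of a cytochrome P450 panel screen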
[27] = molecular target: Peroxisome proliferator-activated receptor gamma/Nuclear receptor coactivator 1 (Homo sapiens, UniProt P37231); test: as §1, with “1 (SRC-1)” for “2 (SRC-2)”, “assays (depositor defined):AID1300, AID1808, AID504735, AID631]” for “assays: 1297, 1032 ]”; format: protein assay

T1 sequence (P98170 whole entry, the tested form may be a part): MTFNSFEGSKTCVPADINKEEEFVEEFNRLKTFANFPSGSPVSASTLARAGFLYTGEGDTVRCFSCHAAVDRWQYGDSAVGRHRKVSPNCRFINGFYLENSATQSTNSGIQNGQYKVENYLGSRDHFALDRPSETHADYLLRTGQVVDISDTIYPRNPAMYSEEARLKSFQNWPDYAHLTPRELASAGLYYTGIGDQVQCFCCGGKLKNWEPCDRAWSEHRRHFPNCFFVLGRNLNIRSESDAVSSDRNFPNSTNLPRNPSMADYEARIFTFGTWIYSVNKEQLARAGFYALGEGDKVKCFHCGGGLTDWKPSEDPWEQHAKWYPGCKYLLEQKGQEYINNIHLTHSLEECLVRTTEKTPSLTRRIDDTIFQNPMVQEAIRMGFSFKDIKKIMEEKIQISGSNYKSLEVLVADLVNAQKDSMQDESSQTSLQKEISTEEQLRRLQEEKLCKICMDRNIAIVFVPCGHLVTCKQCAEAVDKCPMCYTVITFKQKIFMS
Chain of Nucleotide-binding oligomerization domain-containing protein 1 (Q9Y239 whole entry, the tested form may be a part): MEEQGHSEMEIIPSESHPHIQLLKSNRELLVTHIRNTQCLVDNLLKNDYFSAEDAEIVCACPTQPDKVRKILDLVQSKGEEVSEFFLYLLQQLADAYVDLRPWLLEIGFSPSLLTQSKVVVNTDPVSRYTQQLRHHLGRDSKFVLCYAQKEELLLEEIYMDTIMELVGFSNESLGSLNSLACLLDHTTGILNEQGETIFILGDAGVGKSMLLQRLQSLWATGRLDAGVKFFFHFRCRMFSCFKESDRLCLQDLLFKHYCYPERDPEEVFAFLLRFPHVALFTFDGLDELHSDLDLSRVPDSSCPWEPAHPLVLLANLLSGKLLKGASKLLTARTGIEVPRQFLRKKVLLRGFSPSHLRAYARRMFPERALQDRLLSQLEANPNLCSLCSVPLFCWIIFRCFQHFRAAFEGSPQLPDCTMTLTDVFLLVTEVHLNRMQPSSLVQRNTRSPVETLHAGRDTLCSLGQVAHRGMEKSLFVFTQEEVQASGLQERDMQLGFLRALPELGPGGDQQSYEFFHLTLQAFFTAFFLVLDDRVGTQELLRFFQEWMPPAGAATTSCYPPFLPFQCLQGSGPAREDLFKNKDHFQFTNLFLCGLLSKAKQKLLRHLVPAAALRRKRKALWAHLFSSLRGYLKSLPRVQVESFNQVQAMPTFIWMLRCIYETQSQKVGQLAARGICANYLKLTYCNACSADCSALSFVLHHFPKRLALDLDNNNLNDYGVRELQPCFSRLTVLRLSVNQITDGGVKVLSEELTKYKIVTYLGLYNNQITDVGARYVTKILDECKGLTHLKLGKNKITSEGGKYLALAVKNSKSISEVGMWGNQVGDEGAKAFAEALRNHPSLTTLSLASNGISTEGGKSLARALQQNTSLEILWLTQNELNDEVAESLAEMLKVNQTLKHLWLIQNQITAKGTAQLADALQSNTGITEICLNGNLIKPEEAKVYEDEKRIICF
Chain of Tumor necrosis factor (P01375 whole entry): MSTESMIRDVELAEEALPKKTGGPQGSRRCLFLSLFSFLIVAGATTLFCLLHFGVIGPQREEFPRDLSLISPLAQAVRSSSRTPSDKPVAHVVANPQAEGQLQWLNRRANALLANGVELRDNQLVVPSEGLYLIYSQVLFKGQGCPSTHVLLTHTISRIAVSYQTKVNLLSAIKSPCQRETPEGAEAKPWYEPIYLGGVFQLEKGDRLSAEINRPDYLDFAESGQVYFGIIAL
Chain of Bcl-2-related protein A1 (Q07440 whole entry): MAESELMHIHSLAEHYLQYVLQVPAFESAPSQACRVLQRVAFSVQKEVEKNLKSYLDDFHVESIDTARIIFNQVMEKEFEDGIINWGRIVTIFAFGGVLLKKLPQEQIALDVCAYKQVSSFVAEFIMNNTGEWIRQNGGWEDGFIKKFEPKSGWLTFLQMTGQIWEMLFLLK
Chain of Cytochrome P450 3A4 (P08684 whole entry): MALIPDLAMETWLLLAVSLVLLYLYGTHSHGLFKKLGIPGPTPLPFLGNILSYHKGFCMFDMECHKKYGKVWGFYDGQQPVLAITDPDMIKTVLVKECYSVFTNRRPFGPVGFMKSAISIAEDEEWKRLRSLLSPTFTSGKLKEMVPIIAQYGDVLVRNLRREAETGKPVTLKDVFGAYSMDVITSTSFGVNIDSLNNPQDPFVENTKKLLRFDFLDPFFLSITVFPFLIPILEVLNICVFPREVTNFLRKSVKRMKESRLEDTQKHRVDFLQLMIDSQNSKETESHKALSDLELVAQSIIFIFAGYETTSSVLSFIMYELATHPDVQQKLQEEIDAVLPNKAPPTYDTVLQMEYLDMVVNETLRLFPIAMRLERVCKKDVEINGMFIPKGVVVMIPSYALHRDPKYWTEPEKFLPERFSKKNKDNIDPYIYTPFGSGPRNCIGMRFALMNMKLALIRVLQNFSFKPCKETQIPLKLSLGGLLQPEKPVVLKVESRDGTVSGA
Chain of Nonstructural protein 1 (Q194T2 whole entry): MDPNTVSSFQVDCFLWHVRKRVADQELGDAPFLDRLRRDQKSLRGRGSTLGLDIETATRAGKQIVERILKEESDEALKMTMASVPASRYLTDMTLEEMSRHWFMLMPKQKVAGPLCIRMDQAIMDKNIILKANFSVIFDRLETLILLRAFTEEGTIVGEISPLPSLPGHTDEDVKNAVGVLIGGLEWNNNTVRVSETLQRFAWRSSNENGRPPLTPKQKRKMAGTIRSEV
Chain of Sphingosine 1-phosphate receptor 1 (P21453 whole entry): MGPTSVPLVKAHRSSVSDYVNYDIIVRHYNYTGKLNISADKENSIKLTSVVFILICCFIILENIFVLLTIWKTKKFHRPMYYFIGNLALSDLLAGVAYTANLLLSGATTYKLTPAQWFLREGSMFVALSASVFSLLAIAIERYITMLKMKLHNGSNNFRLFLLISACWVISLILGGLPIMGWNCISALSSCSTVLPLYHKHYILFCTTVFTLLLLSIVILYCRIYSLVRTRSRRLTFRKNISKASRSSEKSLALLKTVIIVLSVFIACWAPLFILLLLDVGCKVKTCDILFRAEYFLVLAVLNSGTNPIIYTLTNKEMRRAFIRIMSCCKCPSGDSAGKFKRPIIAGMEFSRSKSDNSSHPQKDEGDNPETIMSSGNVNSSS
Chain of Type-1 angiotensin II receptor (P30556 whole entry, the tested form may be a part): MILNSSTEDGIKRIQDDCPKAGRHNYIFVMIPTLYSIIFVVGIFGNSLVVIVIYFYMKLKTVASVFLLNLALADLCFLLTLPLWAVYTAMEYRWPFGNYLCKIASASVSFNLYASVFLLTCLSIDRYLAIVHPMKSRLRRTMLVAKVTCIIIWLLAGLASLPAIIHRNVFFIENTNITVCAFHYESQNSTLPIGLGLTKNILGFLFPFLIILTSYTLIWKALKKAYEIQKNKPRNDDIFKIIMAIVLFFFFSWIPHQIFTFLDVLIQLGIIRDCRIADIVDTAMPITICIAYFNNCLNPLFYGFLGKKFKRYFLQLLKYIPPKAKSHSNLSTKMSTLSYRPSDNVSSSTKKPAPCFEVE
Chain of Intestinal-type alkaline phosphatase (Mus musculus, UniProt P24822) (P24822 whole entry): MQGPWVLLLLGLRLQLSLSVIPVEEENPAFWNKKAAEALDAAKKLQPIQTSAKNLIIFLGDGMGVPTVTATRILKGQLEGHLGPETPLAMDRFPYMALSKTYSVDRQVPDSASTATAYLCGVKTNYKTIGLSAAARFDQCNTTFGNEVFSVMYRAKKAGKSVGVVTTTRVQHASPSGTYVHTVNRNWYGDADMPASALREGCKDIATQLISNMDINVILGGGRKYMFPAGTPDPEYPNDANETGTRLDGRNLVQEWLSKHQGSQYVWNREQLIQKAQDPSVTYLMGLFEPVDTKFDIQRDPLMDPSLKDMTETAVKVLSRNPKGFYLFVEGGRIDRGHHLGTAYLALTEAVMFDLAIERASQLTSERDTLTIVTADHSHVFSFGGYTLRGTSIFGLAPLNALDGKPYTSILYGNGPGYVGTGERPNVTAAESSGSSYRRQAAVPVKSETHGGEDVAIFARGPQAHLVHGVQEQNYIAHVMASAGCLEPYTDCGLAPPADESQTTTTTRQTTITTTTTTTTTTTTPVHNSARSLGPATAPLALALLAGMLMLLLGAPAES
Chain of Delta-type opioid receptor (P41143 whole entry): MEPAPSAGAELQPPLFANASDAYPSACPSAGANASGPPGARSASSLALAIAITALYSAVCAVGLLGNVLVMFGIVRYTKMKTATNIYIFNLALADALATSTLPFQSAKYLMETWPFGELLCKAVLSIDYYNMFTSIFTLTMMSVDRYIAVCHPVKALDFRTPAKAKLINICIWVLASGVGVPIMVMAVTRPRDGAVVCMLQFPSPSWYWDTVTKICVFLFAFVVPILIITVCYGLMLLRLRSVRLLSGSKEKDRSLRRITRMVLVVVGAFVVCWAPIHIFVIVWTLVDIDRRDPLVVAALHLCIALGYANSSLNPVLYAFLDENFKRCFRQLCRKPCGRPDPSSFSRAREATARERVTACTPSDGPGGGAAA
Chain of Sphingosine 1-phosphate receptor 2 (O95136 whole entry): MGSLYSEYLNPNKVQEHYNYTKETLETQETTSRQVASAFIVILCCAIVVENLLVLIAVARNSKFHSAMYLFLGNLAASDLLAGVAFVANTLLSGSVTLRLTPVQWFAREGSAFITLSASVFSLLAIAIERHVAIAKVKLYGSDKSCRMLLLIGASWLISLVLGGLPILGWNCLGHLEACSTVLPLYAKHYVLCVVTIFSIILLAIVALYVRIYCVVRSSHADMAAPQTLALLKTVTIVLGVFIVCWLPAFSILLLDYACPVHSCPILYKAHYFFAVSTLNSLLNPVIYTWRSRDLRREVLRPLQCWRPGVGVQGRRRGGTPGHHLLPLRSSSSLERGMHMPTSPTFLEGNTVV

In the case of CC[C@H](NC(=O)[C@H](C)NC)C(=O)N1CCC[C@H]1C(=O)NC1CCCc2ccccc21 (some centres not stated), the IC50 [1] is reported as 530 nM (active) and 980 nM (active) and the IC50 [2] is reported as 9.7 µM (active) and 13.7 µM (active).

For COC(=O)c1ccc(NS(=O)(=O)c2ccc3[nH]c(=O)oc3c2)cc1, the IC50 [3] was 2.6 µM (active), the IC50 [4] was > 100 µM (inactive) and the IC50 [5] was > 100 µM (inactive).

In the case of Cc1ccccc1-n1c(=O)c(C#N)cc2c(=O)n3ccccc3nc21, the EC50 [6] is reported as 7.45 µM (active), the EC50 [7] is reported as > 38 µM (not active) and the EC50 [8] is reported as 2.58 µM (active). For the same molecule, the EC50 [9] was 7.88 µM (active) and the EC50 [10] was > 160 µM (inactive).

In the case of COC(=O)CC1=NN(c2nc3ccccc3s2)C(=O)/C1=C(/C)Nc1ccc(OC)cc1, the IC50 [11] is reported as < 39.1 nM (active) and 4.12 µM (active), the IC50 [12] is reported as > 20 µM (inactive) and the IC50 [13] is reported as 260 nM (active) and 2.38 µM (active).

With Cc1ccc2nc(N(CCCN(C)C)C(=O)c3ccc(S(=O)(=O)N4CCc5ccccc5C4)cc3)sc2c1 the EC50 [14] was 57.8 µM (inactive), the EC50 [15] was > 92.5 µM (inactive) and the IC50 [16] was > 20 µM (inactive). The EC50 [17] was 3.35 µM (active), the EC50 [18] was > 92.5 µM (inactive) and the IC50 [19] was 7.23 µM (active). For the same molecule, the AC50 [20] was 6.05 µM (active), the IC50 [21] was > 50 µM (active) and the IC50 [22] was 11 µM (active). For the same molecule, the EC50 [23] was 10.2 µM (inactive).

With CCOC(=O)CSc1cc(=O)n(C)c2cc(Cl)ccc12 the EC50 [24] was > 79.4 µM (not active), the EC50 [25] was > 79.4 µM (not active) and the AC50 [26] was 22.4 µM (inconclusive). The EC50 [27] was > 79.4 µM (inactive).
